Test results as given in patent US7632814B2, “HYD1 peptides as anti-cancer agents” (University of South Florida, priority 2006, dated 2009).
Where no end group is shown, it is not given here. [ ]: non-standard residue; d: D form. 5(6)‑FAM = 5(6)-carboxyfluorescein

Key:
[1] = target: T1, β1 integrin (Homo sapiens, UniProt P05556); assay: Binding of peptide to the cell surface
T1 construct: endogenous in cells
Source text: Another aspect of the invention concerns a method of identifying modulators of peptide binding (a screen for molecules that displace peptide binding). Agents that are identified as being capable of competing with the HYD1 peptides of the invention for binding to β1 integrin may have utility as cytotoxic agents for research or therapy (e.g., for cancer treatment). The method comprising providing a candidate agent (such as a chemical compound, antibody, nucleic acid, or peptide); and determining whether the agent inhibits (e.g., disrupts, prevents, or interferes with), the ability of a HYD1 peptide of the invention (HYD1 or a fragment or variant thereof) to bind to β1 integrin on a cell surface (e.g., cancer cell surface) and/or inhibit β1 integrin mediated adhesion, in vitro or in vivo (e.g., in an animal model). Preferably, the cell is a cancer cell such as a myeloma cell or a cell of other cancer types (see, for example Table 1). Preferably, the peptide is labeled with a detectable moiety (e.g., a fluorescent tag, such as […]) to facilitate the determining step. Examples of controls that may be utilized in carrying out the screening method include, but are not limited to, unlabeled HYD1 peptides (HYD1, or a fragment or variant thereof); scrambled peptides (such as HYD1S); β1 integrin blocking antibody; and non-specific surface antigen binding antibody (such as CD138 for myeloma cells). Advantageously, using the screening assay, labeled HYD1 or fragments or variants thereof, can be used to screen candidates such as small molecules, on natural product libraries, in a rapid, high-throughput fashion. […] Fluorescence polarization (FP) analysis can be used to screen small molecule or natural product libraries for discovery of novel compounds that mimic the specific binding and potentially the biological activity of HYD1. The FP assay is based on the extent of depolarization of the free versus bond peptide, which can be accurately measured on commercially available FP plate readers. […] In summary, a high throughput screen (HTS) can be used to bind small molecules prior to the addition of an HYD1 probe and molecules of interest can be identified by displacement of bond peptide, with a corresponding increase in unbound peptide by FP analysis. An analogous high-throughput binding assay based on fluorescence polarization, which allows screening for small molecules that bind to the STAT3 SH2 domain, is described in Schust J. and Berg T., Anal Biochem., 2004 Jul. 1; 330(1):114-8. […]

[2] = test system: Myeloma cells; assay: Apoptotic activity of HYD1 variants in myeloma cells (cell line not stated); type: cell-based
Method: Myeloma cells were plated at a density of 400,000 cells per ml in a 24 well plate. Cells were treated with the indicated dose of the peptide for 24 hours. Following 24 hrs of peptide exposure, apoptotic cells were detected using Annexin V staining and FACS analysis. Ten thousand events were analyzed by flow cytometry (Becton Dickinson, San Jose, Calif.). Experiments were performed in triplicate and repeated twice. Shown is a representative figure.

[3] = test system: prostate tumor cell; assay: Cell adhesion supported by immobilized HYD1 fragments and variants; type: cell-based; conditions: truncation and alanine substitution of HYD1
Source text: Defining the minimal region of HYD1 necessary to potentiate drug-induced apoptosis in suspension and adherent cultures is of interest. Below is a study to determine the minimal HYD1 sequence required to block prostate tumor cell migration. Similar studies as those outlined below and using the same peptide sequences will be used to determine the minimal amino acid sequence required for potentiation of drug induced apoptosis.
To determine the minimal element of immobilized HYD1 required for cell adhesion, the N and C terminus was systematically truncated one amino acid at a time (FIG. 14A). Most of the adhesion activity was retained with the deletion of lys-glycine from the C-terminus. However, the peptide no longer supported cell adhesion if the next residue, tryptophan was removed. Deletion of the N-terminus on the other hand, was tolerated very well until the third residue, methionine, was removed, leading to gradual decrease in cell binding.

[4] = test system: H929 cells; assay: Lysosensor staining of acidic vesicles, confocal microscopy; type: cell-based; conditions: 100 μg/ml, six hours, compared to control cells
Method: Lysosensor green was used to detect acidic compartments and live cell imaging was performed by confocal microscopy. Shown is a representative figure. The experiment was repeated three independent times and similar results were obtained.
Lysosensor staining. 35 mm glass bottom microwell dishes were incubated with 10 ul Cell-tak (BD biosciences San Jose, Calif.) and 290 ul 0.5M sodium bicarbonate (Sigma) for 30 minutes. The plates were aspirated and 200,000H929 or 8226 cells were plated. Cells were then treated with either water (VC), 100 μg/ml HYD1 or 100 μg/ml HYD1S for 6 hours. After the 6-hour incubation, the plates were aspirated and washed once with warm media. Media containing 1 μM lysosensor DND-189 (Molecular Probes, Carlsbad Calif.) and 20 μM Hoechst 33342 (Molecular Probes) was added and samples were incubated for an additional 30 minutes. Samples were analyzed with a Leica DMI6000 inverted TCS SP5 confocal scanner (Leica Microsystems, Germany). 405 Diode and Argon laser lines were applied to excite the samples and tunable filters were used to minimize the crosstalk between fluorochromes. Gain, offset, and pinhole setting were identical for all samples within the treatment group. Image sections at […] were captured with photomultiplier detectors and maximum projections were prepared with the LAS AF software version 1.6.0 build 1016 (Leica Microsystems, Germany).

[5] = test system: H929 cells; assay: Electron microscopy of double membrane vesicles; type: cell-based; conditions: 100 μg/ml, 4 hours
Method: H929 cells were treated with either 100 µg/ml HYD1 (FIG. 24A) or HYD1S (FIG. 24B) for four hours and processed for electron microscopy as described in materials and methods.
Electron Microscopy. H929 cells were treated for four hours with either 100 μg/ml HYD1 or HYD1S. After peptide treatment, the samples were fixed overnight in 2.5% glutaraldehyde in 0.1M phosphate buffer, pH 7.2 overnight at four degrees. Following fixation, the cells were rinsed 2 times for 10 minutes each in 0.1M phosphate buffer, pH 7.2, at 4° C. The cells were loosely pelleted in microcentrifuge tubes at 500×G for 3 minutes. The buffer was removed from the cells and replaced with 1% osmium tetroxide in the above buffer at 4° C. The cells were resuspended and post-fixed for 1 hour, then loosely pelleted and rinsed in the above buffer. This step was repeated for a total of 3 rinses of 5 minutes each, with the cells being resuspended after each buffer change. Cells were dehydrated through a graded series of acetone, 30%, 50%, 70%, and 95% acetone in water, 5 minutes per change with loose pelleting at 750×G for 5 minutes, then resuspension for each step. The cells were then dehydrated through three changes of 100% acetone, 10 minutes per change, with a 5 minute pelleting step at 1000×G, followed by resuspension in each step. […]

[6] = test system: 8226 cells; assay: HS-5 co-culture (SF+A) model of drug resistance, melphalan apoptosis; type: cell-based; conditions: 8226 cells co-cultured with HS-5, 50 μg/ml peptide, with melphalan
Method: (§1) Co-culture model. HS-5/GFP cells were plated at a density of 500,000 cells per ml and incubated overnight. Myeloma cells were incubated with vehicle control (water), 50 μg/ml HYD1 or 50 μg/ml HYD1S 30 minutes prior to the addition of myeloma cells (400,000 cell/ml) to either control plates or plates containing HS-5 cells. Myeloma cells were incubated with HS-5 cells for three hours prior to the addition of melphalan. Apoptotic cells were measured in GFP negative myeloma cells, by annexin PE staining and FACS analysis (n=9). ANOVO was performed to determine significance between conditions.
(§2) Briefly, 8226 myeloma cells were pre-incubated with varying concentrations of either HYD1 or the scrambled HYD1S peptide for 30 minutes prior to allowing cells to attach to FN for two hours. Following two hours of cell adhesion, the amount of cells adherent to FN was measured. The next objective was to determine whether treatment of tumor cells with HYD1 results in potentiation of melphalan induced cell death in the BMS co-culture model (SF+A). […] For these studies, the HYD1 and HYD1S were pre-incubated with the […] for 30 minutes, and then cells and culture media containing the peptide were placed into the S-5 culture dish. Myeloma cells were co-cultured for an additional 3 hours with HS-5 cells before the addition of melphalan. Twenty-four hours after drug treatment, apoptosis was measured by Annexin V-PE positive events by FACS analysis. The HS-5 cells constitutively express GFP and thus it is possible to gate GFP negative cells only (myeloma cells) for the apoptotic analysis.

[7] = test system: H929 cells; assay: as above; type: cell-based; conditions: H929 cells co-cultured with HS-5, 50 μg/ml peptide, with melphalan
Method: as §1, §2

[8] = test system: phospho Pyk2 in H929 cells; assay: Phospho-Pyk2 levels in suspension culture (immunoblot); type: cell-based; conditions: H929 cells cultured in suspension
Source text: Based upon the observation that HYD1 increased melphalan induced apoptosis in suspension cultures, whether treatment with HYD1 inhibits phosphorylation of a downstream mediator of β1 integrin signaling (Pyk2) in suspension cultures was investigated.

[9] = test system: DU145 prostate cancer cells; conditions: DeRoock et al. 2001; cited from earlier work

T1 sequence (P05556 21-798): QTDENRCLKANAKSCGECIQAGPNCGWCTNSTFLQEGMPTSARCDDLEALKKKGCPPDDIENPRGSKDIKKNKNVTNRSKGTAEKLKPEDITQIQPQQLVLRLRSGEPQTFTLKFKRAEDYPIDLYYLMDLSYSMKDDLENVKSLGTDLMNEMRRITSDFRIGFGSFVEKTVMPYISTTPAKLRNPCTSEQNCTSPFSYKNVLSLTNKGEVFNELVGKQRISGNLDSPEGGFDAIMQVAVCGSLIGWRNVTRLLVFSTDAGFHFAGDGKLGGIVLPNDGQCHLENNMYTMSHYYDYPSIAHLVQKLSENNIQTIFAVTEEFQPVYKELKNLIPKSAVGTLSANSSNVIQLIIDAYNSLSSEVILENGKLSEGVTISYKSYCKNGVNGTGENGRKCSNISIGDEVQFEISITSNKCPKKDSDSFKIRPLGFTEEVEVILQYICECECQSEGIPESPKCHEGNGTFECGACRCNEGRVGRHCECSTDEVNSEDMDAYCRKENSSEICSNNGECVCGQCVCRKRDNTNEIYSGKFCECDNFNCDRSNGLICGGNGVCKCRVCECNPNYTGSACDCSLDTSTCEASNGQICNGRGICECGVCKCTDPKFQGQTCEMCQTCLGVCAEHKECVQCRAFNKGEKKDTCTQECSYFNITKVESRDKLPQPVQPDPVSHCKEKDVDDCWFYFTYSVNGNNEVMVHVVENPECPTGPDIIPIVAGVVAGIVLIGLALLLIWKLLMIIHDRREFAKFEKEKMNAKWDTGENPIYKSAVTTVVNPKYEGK

FAM-HYD1: HYD1 with R=5(6)-FAM (carboxyfluorescein) ({5(6)‑FAM}-[dK][dI][dK][dM][dV][dI][dS][dW][dK]G)
binding to the cell surface [1]: binds to the cell surface | blocking of cell surface binding by β1 integrin antibody [1]: can be blocked | biological activity of conjugated HYD1 [2]: retains biological activity

ikmvisw (IKMVISW; HYD1 fragment)
cell adhesion supported by immobilized peptide [3]: retained full cell adhesion activities

wiksmkivkg ([dW][dI][dK][dS][dM][dK][dI][dV][dK]G) [HYD1S, reference compound]
number and size of acidic vesicles [4]: large vesicles noted with HYD1 treatment in both the lysosensor staining and EM analysis were not detected | formation of double membranes / vesicles (EM) [5]: small vesicles fused with lysosomes were observed | potentiation of melphalan-induced apoptosis in the SF+A model [6]: but not the scrambled peptide (HYD1S) potentiates melphalan-induced cell death | potentiation of melphalan-induced apoptosis in the SF+A model [7]: but not the scrambled peptide (HYD1S) potentiates melphalan-induced cell death | phospho Pyk2 levels [8]: but not HYD1S reduces phospho Pyk2 levels | inhibition of cell adhesion to extracellular matrixes [9]: not to inhibit cell adhesion
